Here are results for 1 compound from the NIST ThermoML archive (doi:10.1016/j.tca.2010.12.008).

The conditions of the series: Crystal 2; visual observation.

Numbers after ± are expanded uncertainties.

As to `CC(C)(C)P(=O)(O)C(C)(C)C` [di-tert-butylphosphinic acid], the Triple point temperature stood at 37.8 ± 0.5 K.
